# Measurements from article doi:10.1101/2025.07.30.667614, “Steric control of signaling bias in the immunometabolic receptor GPR84” (bioRxiv, 2025).
# Tests used:
# [1] = biological target: T1, GPR84 W360A (GPR84-Gi2α fusion protein) (Homo sapiens, UniProt Q9NQS5, W360A); assay: [35S]GTPγS binding assay; assay type: biochemical; details: [35S]GTPγS; W360A; read-out: Emax ± SEM
# T1 construct: FLAG (N); Gαi2-Cys352Ile (fusion partner) (C); expressed in transfected cells
# Method: (§1) Membranes were generated from Flp-In™ T-REx™ 293 cells following 100 ng/ml doxycycline treatment to induce receptor expression. Cells were washed with ice-cold phosphate-buffered saline (PBS), removed from dishes by scraping and centrifuged at 1,800 x g for 5 min at 4 °C. Pellets were resuspended in TE buffer (10mM Tris-HCl, 0.1 mM EDTA; pH 7.4) containing a protease inhibitor mixture and homogenized with a 5 ml hand-held homogenizer. Samples were centrifuged at 450 x g for 5 min at 4 °C and the supernatant was further centrifuged at 90,000 x g for 45 min at 4 °C. The resulting pellet was resuspended in TE buffer and protein content was assessed using a BCA protein assay kit.
# (§2) Prepared membrane protein (3 μg per well) was incubated in assay buffer (20 mM HEPES, 5 mM MgCl2, 160 mM NaCl, 0.05 % fatty-acid-free bovine serum albumin; pH 7.4) containing the indicated ligand concentrations. The reaction was initiated by addition of [^35S]GTPγS (100 nCi per reaction) with 1 μM GDP, and incubated at 30 °C for 60 min. The reaction was terminated by rapid vacuum filtration through GF/C glassfibre filter-bottom 96-well microplates using a UniFilter FilterMate Harvester (PerkinElmer). Unbound radioligand was removed from filters by three washes with ice-cold PBS. Ultima Gold™ XR was added to dried filters, and [^35S]GTPγS binding quantified by liquid scintillation spectroscopy.
# [2] = biological target: T2, GPR84 Y69A (GPR84-Gi2α fusion protein) (Homo sapiens, UniProt Q9NQS5, Y69A); assay: [35S]GTPγS binding assay; assay type: biochemical; details: [35S]GTPγS; Y69A; read-out: Emax ± SEM
# T2 construct: FLAG (N); Gαi2-Cys352Ile (fusion partner) (C); expressed in transfected cells
# Method: as §1, §2
# [3] = biological target: T3, GPR84 Y81A (GPR84-Gi2α fusion protein) (Homo sapiens, UniProt Q9NQS5, Y81A); assay: [35S]GTPγS binding assay; assay type: biochemical; details: [35S]GTPγS; Y81A; read-out: Emax ± SEM
# T3 construct: FLAG (N); Gαi2-Cys352Ile (fusion partner) (C); expressed in transfected cells
# Method: as §1, §2
# [4] = biological target: T4, GPR84 S169A (GPR84-Gi2α fusion protein) (Homo sapiens, UniProt Q9NQS5, S169A); assay: [35S]GTPγS binding assay; assay type: biochemical; details: [35S]GTPγS; S169A; read-out: Emax ± SEM
# T4 construct: FLAG (N); Gαi2-Cys352Ile (fusion partner) (C); expressed in transfected cells
# Method: as §1, §2
# GPR84 Y332F = biological target: T5, GPR84 Y332F (Homo sapiens, UniProt Q9NQS5, Y332F); assay: [35S]GTPγS binding assay; assay type: biochemical; details: [35S]GTPγS; Y332F; read-out: Emax ± SEM
# T5 construct: FLAG (N); Gαi2-Cys352Ile (fusion partner) (C); expressed in transfected cells
# Method: as §1, §2
# GPR84 Y332A = biological target: T6, GPR84 Y332A (Homo sapiens, UniProt Q9NQS5, Y332A); assay: [35S]GTPγS binding assay; assay type: biochemical; details: [35S]GTPγS; Y332A; read-out: Emax ± SEM
# T6 construct: FLAG (N); Gαi2-Cys352Ile (fusion partner) (C); expressed in transfected cells
# Method: as §1, §2
# [5] = biological target: T7, GPR84 R172A (GPR84-Gi2α fusion protein) (Homo sapiens, UniProt Q9NQS5, R172A); assay: [35S]GTPγS binding assay; assay type: biochemical
# T7 construct: FLAG (N); Gαi2-Cys352Ile (fusion partner) (C); expressed in transfected cells
# Method: as §1, §2
# [6] = biological target: GPR84-WT (GPR84-Gi2α fusion protein) (Homo sapiens, UniProt Q9NQS5); assay: [35S]GTPγS binding assay; assay type: biochemical; details: [35S]GTPγS, GPR84-WT; for EC50: Extended Data Table 3, read-out: pEC50 ± SEM (converted)
# Method: as §1, §2
# [7] = biological target: T8, GPR84 T167A (GPR84-Gi2α fusion protein) (Homo sapiens, UniProt Q9NQS5, T167A); assay: [35S]GTPγS binding assay; assay type: biochemical; details: [35S]GTPγS; T167A; read-out: Emax ± SEM
# T8 construct: FLAG (N); Gαi2-Cys352Ile (fusion partner) (C); expressed in transfected cells
# Method: as §1, §2
# GPR84 N362S = biological target: T9, GPR84 N362S (Homo sapiens, UniProt Q9NQS5, N362S); assay: [35S]GTPγS binding assay; assay type: biochemical; details: [35S]GTPγS; N362S; read-out: Emax ± SEM
# T9 construct: FLAG (N); Gαi2-Cys352Ile (fusion partner) (C); expressed in transfected cells
# Method: as §1, §2
# [8] = biological target: T10, GPR84 N104A (GPR84-Gi2α fusion protein) (Homo sapiens, UniProt Q9NQS5, N104A); assay: [35S]GTPγS binding assay; assay type: biochemical; details: [35S]GTPγS; N104A; read-out: Emax ± SEM
# T10 construct: FLAG (N); Gαi2-Cys352Ile (fusion partner) (C); expressed in transfected cells
# Method: as §1, §2
# GPR84 [9] = biological target: T11, GPR84 (Homo sapiens, UniProt Q9NQS5); assay: CHO-K1-based PathHunter β-arrestin-2 recruitment assay; assay type: cell-based; design: host or cells: CHO-K1; details: for Emax: read-out: β-arrestin-2 %Emax ± SEM; for EC50: wild type GPR84, CHO-K1 PathHunter, read-out: β-arrestin-2 pEC50 ± SEM (converted); for change in efficacy in β-arrestin-2 recruitment: compared to OX04929 (so in the source)
# Method: Cells were stimulated with test ligands for 90 min. Compounds were prepared at 5× concentration in DPBS containing 0.1% BSA and 0.125% Tween-80 to minimise aggregation. β-arrestin recruitment was quantified using the PathHunter® β-Arrestin Assay (DiscoverX 93-0001) following the manufacturer’s instructions. Luminescence was recorded after 18 h using a PHERAstar® FS plate reader.
# GPR84 [10] = biological target: T11, GPR84; assay: CHO-K1-based HitHunter cAMP inhibition assay; assay type: cell-based; details: wild type GPR84; for Emax: normalised to capric acid (100 μM), read-out: cAMP %Emax ± SEM; for EC50: CHO-K1 cells, forskolin 25 μM, read-out: cAMP pEC50 ± SEM (converted)
# Method: CHO-K1 cells stably expressing human GPR84 (DiscoverX 95-0158C2) were seeded in 384-well plates at 15,000 cells per well in 20 μL of F12 medium supplemented with 10% fetal bovine serum (FBS), 19 mM HEPES, and 1% penicillin-streptomycin. After overnight incubation at 37 °C and 5% CO2, the medium was removed and replaced with PBS containing 0.1% BSA. Cells were stimulated for 30 min with forskolin (25 μM) and test compounds prepared in Dulbecco’s PBS (DPBS) with 0.1% BSA. Compounds were dissolved in DMSO and diluted appropriately. cAMP levels were quantified using the HitHunter® cAMP Assay for Small Molecules (DiscoverX 90-0075SM2) according to the manufacturer’s protocol. Luminescence was measured 18 h post-assay using a PHERAstar® FS plate reader (BMG Labtech).
# wild type GPR84 = biological target: T12, wild type GPR84 (Homo sapiens, UniProt Q9NQS5); assay: pThr263/pThr264 immunoblot of immunoprecipitated GPR84-eYFP; assay type: cell-based; details: 1 μM
# T12 construct: expressed in transfected cells
# Method: eYFP-linked receptor constructs were immunoprecipitated from 200 μl cell lysates using GFP-Trap® agarose beads (Proteintech) according to manufacturer’s instructions. Immunocomplexes were washed three times in washing buffer, resuspended in 100 μl 2 × SDS-PAGE sample buffer and incubated at 60 °C for 10 min. Following centrifugation at 2500g for 5 min, 20 μl of immunoprecipitated proteins was resolved by SDS-PAGE on 4% to 12% BisTris gels. After separation, the proteins were transferred electrophoretically onto nitrocellulose membrane, which was then blocked using 5% bovine serum albumin (BSA) in Tris-buffered saline (TBS, 50 mM Tris-Cl, 150 mM NaCl, pH 7.6) for 1 h at room temperature on an orbital shaker. The membrane was then incubated with appropriate primary antibody in 5% BSA in TBS supplemented with 0.1% Tween (TBS-T) overnight at 4 °C. Anti-pThr^263/pThr^264 antiserum was diluted 1:2000 and anti-GFP was diluted 1:10,000. Subsequently, the membrane was washed (3 × 10 min with TBS-T) and incubated for 2 h with anti-rabbit secondary antibody diluted 1:10,000 in 5% BSA in TBS-T. After washing (3 × 10 min with TBS-T), proteins were detected using an Odyssey imaging system (Licor) according to the manufacturer’s instructions.
# T11 sequence (Q9NQS5 whole entry): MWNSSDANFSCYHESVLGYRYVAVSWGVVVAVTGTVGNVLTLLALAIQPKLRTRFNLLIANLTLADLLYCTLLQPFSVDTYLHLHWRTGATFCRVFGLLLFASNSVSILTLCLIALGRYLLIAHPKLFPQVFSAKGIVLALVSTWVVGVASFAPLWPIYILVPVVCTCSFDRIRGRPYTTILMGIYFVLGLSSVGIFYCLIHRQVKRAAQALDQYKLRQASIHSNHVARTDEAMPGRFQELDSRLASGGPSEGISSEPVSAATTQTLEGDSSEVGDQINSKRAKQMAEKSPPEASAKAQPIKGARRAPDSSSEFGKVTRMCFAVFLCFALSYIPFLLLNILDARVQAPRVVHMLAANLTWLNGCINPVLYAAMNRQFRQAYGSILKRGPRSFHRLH
# GPR84-WT (GPR84-Gi2α fusion protein), sequence (Q9NQS5 whole entry, the tested form may be a part): as the sequence (Q9NQS5 whole entry) above
# GPR84-WT (GPR84-Gi2α fusion protein), sequence (P04899 with tags, fused parts or gaps C352I partner): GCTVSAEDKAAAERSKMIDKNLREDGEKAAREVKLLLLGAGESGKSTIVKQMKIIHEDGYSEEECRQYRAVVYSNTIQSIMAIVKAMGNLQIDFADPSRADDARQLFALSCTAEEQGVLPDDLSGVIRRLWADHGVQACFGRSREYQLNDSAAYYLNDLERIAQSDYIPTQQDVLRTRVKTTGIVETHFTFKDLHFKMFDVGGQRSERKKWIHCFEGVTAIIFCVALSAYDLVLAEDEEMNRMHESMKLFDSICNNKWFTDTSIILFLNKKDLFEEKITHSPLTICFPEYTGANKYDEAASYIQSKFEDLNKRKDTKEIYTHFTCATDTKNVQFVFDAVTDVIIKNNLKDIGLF
# T5 sequence (Q9NQS5 whole entry Y332F, the tested form may be a part): as the sequence (Q9NQS5 whole entry) above, with Y332F counted along it
# T6 sequence (Q9NQS5 whole entry Y332A, the tested form may be a part): as the sequence (Q9NQS5 whole entry) above, with Y332A counted along it
# T9 sequence (Q9NQS5 whole entry N362S, the tested form may be a part): as the sequence (Q9NQS5 whole entry) above, with N362S counted along it
# T10 sequence (Q9NQS5 whole entry N104A, the tested form may be a part): as the sequence (Q9NQS5 whole entry) above, with N104A counted along it
# T4 sequence (Q9NQS5 whole entry S169A, the tested form may be a part): as the sequence (Q9NQS5 whole entry) above, with S169A counted along it
# T3 sequence (Q9NQS5 whole entry Y81A, the tested form may be a part): as the sequence (Q9NQS5 whole entry) above, with Y81A counted along it
# T1 sequence (Q9NQS5 whole entry W360A, the tested form may be a part): as the sequence (Q9NQS5 whole entry) above, with W360A counted along it
# T2 sequence (Q9NQS5 whole entry Y69A, the tested form may be a part): as the sequence (Q9NQS5 whole entry) above, with Y69A counted along it
# T7 sequence (Q9NQS5 whole entry R172A, the tested form may be a part): as the sequence (Q9NQS5 whole entry) above, with R172A counted along it
# T12 sequence (Q9NQS5 whole entry): as the sequence (Q9NQS5 whole entry) above
# T8 sequence (Q9NQS5 whole entry T167A, the tested form may be a part): as the sequence (Q9NQS5 whole entry) above, with T167A counted along it
SMILES,Emax (GPR84 [9]),Emax (GPR84 [10]),EC50 (GPR84 [9]),EC50 (GPR84 [10]),change in efficacy in β-arrestin-2 recruitment (GPR84 [9]),also measured
CCCCCCCc1cc(O)c[n+]([O-])c1 [OX04539],100%,100 ± 0.8%,–,–,–,"Emax [1]: 94 ± 13%; Emax [2]: 101 ± 14%; Emax [3]: 134 ± 5%; Emax [4]: 84 ± 4%; Emax (GPR84 Y332F): 167 ± 2%; Emax (GPR84 Y332A): 57 ± 10%; Emax [5]: 42 ± 4%; Emax ([6]; Extended Data Tables 1 and 5, read-out: Emax ± SEM): 150 ± 14%; Emax [7]: 139 ± 7%; Emax (GPR84 N362S): 196 ± 32%; Emax [8]: 150 ± 23%; phosphorylation of Thr263 and Thr264 (immunoblot) (wild type GPR84): promoted phosphorylation"
[O-][n+]1cc(O)cc(CCCCc2ccc(Cl)cc2)c1 [OX04540],81 ± 5.3%,97 ± 0.7%,110 nM,0.0204 nM,–,–
[O-][n+]1cc(O)cc(CCCCc2ccc(Cl)c(CO)c2)c1 [OX04955],21 ± 2.9%,101 ± 1.5%,263 nM,0.0355 nM,–,–
[O-][n+]1cc(O)cc(CCCCc2ccc(Cl)c(C(F)F)c2)c1 [OX04959],24 ± 2.3%,95 ± 11.5%,151 nM,0.00724 nM,–,EC50 [6]: 3.98 nM
[O-][n+]1cc(O)cc(CCCCc2ccc(Cl)c(CF)c2)c1 [OX04960],45 ± 1.2%,107 ± 2.1%,447 nM,0.0102 nM,–,EC50 [6]: 6.31 nM
CCc1cc(CCCCc2cc(O)c[n+]([O-])c2)ccc1Cl [OX04961],21 ± 0.3%,103 ± 3.6%,39.8 nM,0.0112 nM,no significant change,–
CC(C)c1cc(CCCCc2cc(O)c[n+]([O-])c2)ccc1Cl [OX04964],9 ± 1.4%,94 ± 7.4%,–,0.0145 nM,no significant change,–
[O-][n+]1cc(O)cc(CCCCc2ccc(Cl)c(C3CC3)c2)c1 [OX04965],9 ± 3%,103 ± 3.7%,–,0.00398 nM,no significant change,–
CC1(c2cc(CCCCc3cc(O)c[n+]([O-])c3)ccc2Cl)CC1 [OX04966],5 ± 1.5%,107 ± 5.6%,–,0.17 nM,no significant change,–
"Fc1cc(F)c2[nH]cc(Cc3c[nH]c4c(F)cc(F)cc34)c2c1 [PSB-16671, di(5,7-difluoro-1H-indole-3-yl)methane, reference compound]",–,–,–,–,–,Emax (GPR84 Y332F): 100%; Emax (GPR84 Y332A): 100%; Emax (GPR84 N362S): 100%

# More lines, main results first:
Emax (GPR84 [9]),Emax (GPR84 [10]),EC50 (GPR84 [9]),EC50 (GPR84 [10]),change in efficacy in β-arrestin-2 recruitment (GPR84 [9]),SMILES,also measured
34 ± 6%,98 ± 2.1%,138 nM,0.00912 nM,–,[O-][n+]1cc(O)cc(CCCCc2ccc(Cl)c(Br)c2)c1 [OX04956],–
46 ± 5.8%,102 ± 3%,209 nM,0.0389 nM,–,[O-][n+]1cc(O)cc(CCCCc2ccc(Cl)c(Cl)c2)c1 [OX04957],–
72 ± 1.3%,99 ± 0.1%,70.8 nM,0.0407 nM,–,[O-][n+]1cc(O)cc(CCCCc2ccc(Cl)c(F)c2)c1 [OX04958],–
18 ± 2.2%,97 ± 3.4%,178 nM,0.00933 nM,no significant change,C=Cc1cc(CCCCc2cc(O)c[n+]([O-])c2)ccc1Cl [OX04962],–
15 ± 1.1%,106 ± 3.8%,37.2 nM,0.00646 nM,–,C#Cc1cc(CCCCc2cc(O)c[n+]([O-])c2)ccc1Cl [OX04963],–
